Measurements reported in US20050288273A1, “Antibacterial agents” (priority 2003, published 2005).
Converted amounts (≈) assume the structure as drawn.

How the values were obtained:
[1] = system: E. faecalis MGH-2; assay: Antibacterial assay (MIC), standard microtitration, Gram positive; assay type: cell-based; conditions: Enterococcus faecalis, MGH2; Gram positive bacteria; read-out: Minimum Inhibitory Concentrations E. faecalis MGH-2
Excerpt: (§1) Test A—Antibacterial Assays

[2] = system: S pyogenes C203; assay: as above; assay type: cell-based; conditions: Gram positive bacteria; read-out: Minimum Inhibitory Concentrations S pyogenes C203
Excerpt: as §1

[3] = system: S. aureus UC-76; assay: as above; assay type: cell-based; conditions: Staphylococcus aureus, UC76; Gram positive bacteria; read-out: Minimum Inhibitory Concentrations S. aureus UC-76
Excerpt: as §1

[4] = system: S. aureus SA-2017; assay: Cross resistance antibacterial assay (MIC), strain 6; assay type: cell-based; conditions: Staphylococcus aureus, SA2017; S. aureus SA-2017, multiple drug resistant (methicillin, ciprofloxacin); read-out: Minimum Inhibitory Concentrations in Strain 6
Excerpt: (§2) Test C—Cross Resistance Antibacterial Assay

[5] = system: E. faeciaum EF4-3525; assay: Cross resistance antibacterial assay (MIC), strain 4; conditions: read-out: Minimum Inhibitory Concentrations in Strain 4
Method: (§3) The compounds of the present invention were tested against an assortment of drug resistant organisms described below using standard microtitration techniques (Cohen, et. al., Antimicrob. Agents Chemother., 1985; 28:766; Heifetz, et. al., Antimicrob. Agents Chemother, 1974; 6:124). […] E. faeciaum EF4-3525: Vancomicin resitant strain. • 5. E. faeciaum EF4-3836: Multiple drug resitant strain (lineozolid, AZD2563-R, vancomicin, ampicillin, macrolide-R, quinolone-R, trimeothprim/sulfamethoxazole). • 6.

[6] = system: E. faecalis EF-13524; assay: Cross resistance antibacterial assay (MIC), strain 2; assay type: cell-based; conditions: Enterococcus faecalis, EF13524; E. faecalis EF-13524, vancomicin resistant strain; read-out: Minimum Inhibitory Concentrations in Strain 2
Excerpt: as §2

[7] = system: S. pyogenes C-203; assay: In vivo activity (mouse), median protective dose in lethal systemic infection; conditions: mice
Method: Test B—In Vivo Activity (Mouse)
The in vivo activity was obtained when the compounds were tested according to the procedure of Miller, et al. (Proc. Soc. Exp. Biol. Med., 1944; 57:261). The median protective dose (PD50) was determined in mice given lethal systemic infections, as depicted in Table 4.

[8] = system: E. faeciaum EF4-3836; assay: Cross resistance antibacterial assay (MIC), strain 5; conditions: read-out: Minimum Inhibitory Concentrations in Strain 5
Method: as §3

[9] = system: S. aureus SA-3839; assay: Cross resistance antibacterial assay (MIC), strain 8; assay type: cell-based; conditions: Staphylococcus aureus, SA3839; S. aureus SA-3839, multiple drug resistant (linezolid and methicillin); read-out: Minimum Inhibitory Concentrations in Strain 8
Excerpt: as §2

[10] = system: S. aureus SA-3528; assay: Cross resistance antibacterial assay (MIC), strain 7; assay type: cell-based; conditions: Staphylococcus aureus, SA3528; S. aureus SA-3528, multiple drug resistant (MLS); read-out: Minimum Inhibitory Concentrations in Strain 7
Excerpt: as §2

[11] = system: E. faecalis EF-3838; assay: Cross resistance antibacterial assay (MIC), strain 3; assay type: cell-based; conditions: Enterococcus faecalis, EF3838; E. faecalis EF-3838, multiple drug resistant (vancomicin, erythromycin, gentamicin); read-out: Minimum Inhibitory Concentrations in Strain 3
Excerpt: as §2

[12] = system: H. influenzae HI3542; assay: Antibacterial assay (MIC), standard microtitration, Gram negative; assay type: cell-based; conditions: Haemophilus influenzae, HI3542; Gram negative bacteria; read-out: Minimum Inhibitory Concentrations H. influenzae HI3542
Excerpt: as §1

[13] = system: E. coli Tol C; assay: as above; assay type: cell-based; conditions: Escherichia coli, read-out: Minimum Inhibitory Concentrations E. coli Tol C
Excerpt: as §1

[14] = system: M. catarrhalis BC3534; assay: as above; assay type: cell-based; conditions: Moraxella catarrhalis, BC3534; Gram negative bacteria; read-out: Minimum Inhibitory Concentrations M. catarrhalis BC3534
Excerpt: as §1

[15] = system: S. aureus SA-3840; assay: Cross resistance antibacterial assay (MIC), strain 9; assay type: cell-based; conditions: Staphylococcus aureus, SA3840; S. aureus SA-3840, multiple drug resistant (linezolid and methicillin); read-out: Minimum Inhibitory Concentrations in Strain 9
Excerpt: as §2

[16] = system: H. influenziae Hi-3113; assay: Cross resistance antibacterial assay (MIC), strain 13; assay type: cell-based; conditions: H. influenziae Hi-3113, B-lactamase; read-out: Minimum Inhibitory Concentrations in Strain 13
Excerpt: as §2
13. H. influenziae Hi-3113: B-lactamase

[17] = system: S. pneumoniae SP-3536; assay: Cross resistance antibacterial assay (MIC), strain 10; assay type: cell-based; conditions: Streptococcus pneumoniae, SP3536; S. pneumoniae SP-3536, multiple drug resistant (B-lactamase and macrolide-R); read-out: Minimum Inhibitory Concentrations in Strain 10
Excerpt: as §2

[18] = system: S. pneumoniae SP-3561; assay: Cross resistance antibacterial assay (MIC), strain 11; assay type: cell-based; conditions: Streptococcus pneumoniae, SP3561; S. pneumoniae SP-3561, multiple drug resistant (penicillin, macrolide-R, tetracycline etc.); read-out: Minimum Inhibitory Concentrations in Strain 11
Excerpt: as §2

[19] = system: S. pyogenes SP1-3541; assay: Cross resistance antibacterial assay (MIC), strain 12; assay type: cell-based; conditions: Streptococcus pyogenes, SP13541; S. pyogenes SP1-3541, multiple drug resistant (MLS); read-out: Minimum Inhibitory Concentrations in Strain 12
Excerpt: as §2

Compound	MIC [1] [µg/mL]	MIC [2] [µg/mL]	MIC [3] [µg/mL]	MIC [4] [µg/mL]	MIC [5] [µg/mL]	MIC [6] [µg/mL]	MIC [8] [µg/mL]	MIC [9] [µg/mL]	MIC [10] [µg/mL]	MIC [11] [µg/mL]	MIC [12] [µg/mL]	MIC [13] [µg/mL]	MIC [14] [µg/mL]	also measured
CC(=O)NC[C@H]1CN(c2ccc3c(c2)CCCc2cn[nH]c2-3)C(=O)O1 [Example 3, (S)-N-[2-Oxo-3-(1,4,5,6-tetrahydro-1,2-diaza-benzo[e]azulen-8-yl)oxazolidin-5-ylmethyl]acetamide]	0.25 (≈ 0.734 µM)	0.125 (≈ 0.367 µM)	0.5 (≈ 1.47 µM)	1 (≈ 2.94 µM)	0.5 (≈ 1.47 µM)	0.25 (≈ 0.734 µM)	1 (≈ 2.94 µM)	16 (≈ 47 µM)	8 (≈ 23.5 µM)	0.5 (≈ 1.47 µM)	2 (≈ 5.88 µM)	> 64	2 (≈ 5.88 µM)	PD50 (median protective dose) ([7]; S. pyogenes C-203, oral): 6.4 mg/kg; PD50 (median protective dose) ([7]; S. pyogenes C-203, subcutaneous): 2.1 mg/kg
CC(=O)NC[C@H]1CN(c2ccc3c(c2)CCCc2cnoc2-3)C(=O)O1 [Example 3A, (S)-N-[3-(5,6-dihydro-4H-1-oxa-2-aza-benzo[e]azulen-8-yl)-2-oxo-oxalidin-5-ylmethyl]acetamide]				0.5 (≈ 1.46 µM)	0.5 (≈ 1.46 µM)	0.25 (≈ 0.732 µM)	1 (≈ 2.93 µM)	4 (≈ 11.7 µM)	48 (≈ 141 µM)	1 (≈ 2.93 µM)				MIC [15]: 4 µg/mL (≈ 11.7 µM); MIC [16]: 2 µg/mL (≈ 5.86 µM); MIC [17]: 4 µg/mL (≈ 11.7 µM); MIC [18]: 0.25 µg/mL (≈ 0.732 µM); MIC [19]: 0.5 µg/mL (≈ 1.46 µM)
CC(C)(C)OC(=O)NC[C@H]1CN(c2ccc3c(c2)CCCc2cn[nH]c2-3)C(=O)O1 [Example 56, (S)-[2-Oxo-3-(1,4,5,6-tetrahydro-1,2-diaza-benzo[e]azulen-8-yl)-oxazolidin-5-ylmethyl]-carbamic acid tert-butyl ester]	4 (≈ 10 µM)	4 (≈ 10 µM)	1 (≈ 2.51 µM)								> 64	> 64	16 (≈ 40.2 µM)	melting point: 85 to 100 °C
Br.CC(=O)NC[C@H]1CN(c2ccc3c(c2)CCCc2sc(N)nc2-3)C(=O)O1 [Example 186, (S)-N-[3-(2-Amino-5,6-dihydro-4H-3-thia-1-aza-benzo[e]azulen-8-yl)-2-oxo-oxazolidin-5-ylmethyl]-acetamide hydrobromic acid salt]	1	1	2								4	> 64	8	
CC(=O)NC[C@H]1CN(c2ccc3c(c2)CCCc2c-3nn(CCO)c2-c2ccncc2)C(=O)O1 [Example 209, (S)-N-{3-[2-(2-Hydroxy-ethyl)-3-pyridin-4-yl-2,4,5,6-tetrahydro-1,2-diaza-benzo[e]azulen-8-yl]-2-oxo-oxazolidin-5-ylmethyl}-acetamide]	8 (≈ 17.3 µM)	4 (≈ 8.67 µM)	16 (≈ 34.7 µM)								32 (≈ 69.3 µM)	> 64	> 64	
